What was measured:
kappa opioid receptor [1] = biological target: T1, kappa opioid receptor (Mus musculus, UniProt P33534); test: In vivo receptor occupancy (displacement of [3H]GR103545 in brain); settings: subcutaneous dosing; for IC50: displacement of [3H]GR103545, unbound brain concentration, read-out: Mouse KOR IVRO unbound brain IC50
T1 construct: from tissue; host or cells: brain of adult male C57BL/6J mice (in vivo)
Excerpt: (§1) Adult male C576BL/J6 mice from Jackson Labs (Bar Harbor, Me.) were group housed on individually-vented cage racks, in environmentally-controlled animal quarters (light/dark-6:00 am/6:[…]) for a minimum of 7 days prior to use. For progressive ratio studies, mice were food-restricted to 80-85% of their body weight before testing began. All animal procedures were approved by the Pfizer Inc. IACUC and conducted in accordance with the NIH Guide for the Care and Use of Laboratory Animals.
In Vivo Receptor Occupancy
In vivo receptor occupancy was assessed in adult male C57BL6/J mice. Mice were administered increasing doses (0.001-32 mg/kg s.c.) 30 min prior to administration of the kappa opioid receptor ligand, [^3H]GR103545 (100 μCi/kg, intraorbital). Animals were euthanized 10 min later using cervical dislocation and the brains dissected. One hemisphere was stored at −40° C. for subsequent measurement of compound concentration, the other was homogenized in chilled Tris-HCl buffer (50 mM, pH 7.4; 1:10 w/v) for twenty seconds. Samples of brain homogenate were filtered through 0.3 to 0.5% PEI-soaked GF/B filters, and the filters washed twice with chilled buffer before radioactivity was counted overnight using a scintillation counter. Binding of the ligand in cerebellum was used to determine non-specific binding.

kappa opioid receptor [2] = biological target: T1, kappa opioid receptor; test: Progressive ratio responding (reversal of spiradoline-induced deficit in motivation); format: in vivo; settings: co-administered with spiradoline, receptor occupancy measured in a separate group of animals
Excerpt: as §1
Progressive Ratio Responding:
Motivation and food-reinforced operant behavior were assessed in the progressive ratio assay. Adult male C576BL/J6 mice were food-restricted to 80-85% of their body weight over a period of one week and kept in their home cages. Mice were trained to nose-poke for a food reward. […] Mice were assessed in a 60 minute session, where the number of rewards obtained was used as a surrogate of the level of motivation. Once mice had reached a stable level of responding, mice were dosed with the kappa opioid receptor agonist, spiradoline (3.2 mg/kg s.c.), to induce a deficit in motivation. Mice were co-administered increasing doses of the kappa opioid receptor antagonists (0.0032-3.2 mg/kg s.c.) to assess their ability to antagonize the spiradoline-induced deficit.

T1 sequence (P33534 whole entry): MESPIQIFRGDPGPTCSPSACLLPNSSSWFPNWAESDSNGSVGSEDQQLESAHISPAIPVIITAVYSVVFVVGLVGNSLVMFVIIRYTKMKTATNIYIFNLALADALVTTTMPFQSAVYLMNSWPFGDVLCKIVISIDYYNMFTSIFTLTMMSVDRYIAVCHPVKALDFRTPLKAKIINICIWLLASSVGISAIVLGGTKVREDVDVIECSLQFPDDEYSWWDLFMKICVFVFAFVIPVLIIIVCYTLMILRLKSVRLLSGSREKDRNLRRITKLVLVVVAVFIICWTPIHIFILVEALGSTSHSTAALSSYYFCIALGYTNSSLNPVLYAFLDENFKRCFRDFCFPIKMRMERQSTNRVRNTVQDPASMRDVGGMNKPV

SMILES	displacement of KOR agonist radioligand binding in the brain, in words (kappa opioid receptor [1])	IC50 (kappa opioid receptor [1])	% KOR IVRO to achieve 50% PR reversal (kappa opioid receptor [2])
COc1nn(C)cc1C1CCCN1Cc1ccc(Oc2ccc(C(N)=O)cc2F)cc1 (single isomer, unassigned; (-)) [Example 8, (−)-3-Fluoro-4-(4-{[2-(3-methoxy-1-methyl-1H-pyrazol-4-yl)pyrrolidin-1-yl]methyl}phenoxy)benzamide]	displaced KOR agonist radioligand ([^3H]GR103545) binding in the brain in an exposure-dependent manner	0.69 nM	25%
Cc1nn(C)cc1[C@@H]1CCCN1Cc1ccc(Oc2ccc(C(N)=O)cc2)cc1 [Example 11, 4-(4-{[(2S)-2-(1,3-Dimethyl-1H-pyrazol-4-yl)pyrrolidin-1-yl]methyl}phenoxy)benzamide]	displaced KOR agonist radioligand ([^3H]GR103545) binding in the brain in an exposure-dependent manner	2.5 nM	30%
Cc1cc(C)cc([C@@H]2CCCN2Cc2ccc(Oc3ccc(C(N)=O)cc3F)cc2)c1 [Comparator E, reference compound]	displaced KOR agonist radioligand ([^3H]GR103545) binding in the brain in an exposure-dependent manner	0.015 nM	70%
COc1nn(C)cc1[C@@H]1CCCN1Cc1ccc(Oc2ccc(C(N)=O)cc2)cc1 (single isomer, unassigned) [Example 12]	displaced KOR agonist radioligand ([^3H]GR103545) binding in the brain in an exposure-dependent manner	2.5 nM	30%

— patent US10316021B2, “Heteroarylphenoxy benzamide kappa opioid ligands” (Pfizer Inc., priority 2016, dated 2019)
